These results are taken from patent US20110044938A1 (NYCOMED GMBH, priority 2006, published 2011).

For assay [1], the system named is subclones of RKO colon adenocarcinoma cells (RKOp27 or RKOp21) arrested by Ponasterone A. In words: Alamar Blue cell viability assay, cell cycle specific mode of action: cells arrested by ectopic p27Kip1 induced by Ponasterone A versus proliferating cells. The assay is classed as cell-based. The conditions noted are these: Homo sapiens, RKO p27 induced (arrested) cells, 10 μM Ponasterone A, 72 hours, value = class bound given in Table A, read-out: −logIC50 RKO p27 induced (arrested) (converted). In a few lines:
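RKOp27 or RKOp21 cells, 15000/well in DMEM/10% FCS, either arrested by p27Kip1 induced with 10 μM Ponasterone A or proliferating without inducer; compound added after 24 h, 72 h at 37° C. Alamar Blue fluorescence (544/590 nm), viability as % of untreated cells; −log IC50 reported.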

The subject of assay [2] is RKO (RKOp27) human colon adenocarcinoma cells. Put plainly: Alamar Blue cell viability assay, anti-proliferative/cytotoxic activity on proliferating RKO subclones. The assay is classed as cell-based. The conditions noted are these: RKOp27, 72 h, RKO p27 uninduced (proliferating) cells, value = class bound given in Table A, read-out: −logIC50 RKO p27 uninduced (proliferating) (converted). The gist of the method:
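RKOp27 subclones (5000 cells/well) were exposed 24 h after seeding to semi-log compound dilutions in DMEM with 10% FCS, in quadruplicate, for 72 h at 37 °C. Viability was read by Alamar Blue fluorescence (544/590 nm) relative to untreated cells (1% DMSO medium). IC50 came from concentration-effect curves and is reported as −log IC50 [mol/l].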
(The colour change of resazurin is a common sign of viable cells or microbes.)

Take `CCOc1ccccc1/C=C/C(=O)Nc1sc2c(c1C#N)CCC(OC(=O)NCCOC)C2` (centres unmarked) [Example 12, (2-Methoxy-ethyl)-carbamic acid 3-cyano-2-[(E)-3-(2-ethoxy-phenyl)-allanoylamino]-4,5,6,7-tetrahydro-benzo[b]thiophen-6-yl ester]: the IC50 in assay [1] is at least 50.1 µM; in assay [2], at most 0.501 µM.
Taken in the same sequence, the figures for `CCOC(=O)OC1CCc2c(sc(NC(=O)/C=C/c3cccnc3)c2C#N)C1` (centres unmarked) [Example 4, Carbonic acid 3-cyano-2-((E)-3-pyridin-3-yl-allanoylamino)-4,5,6,7-tetrahydro-benzo[b]thiophen-6-yl ester ethyl ester] were at least 100 µM and at most 0.501 µM.
With `Cc1cc(CNC(=O)OCC2CCc3c(sc(NC(=O)CC(C)c4ccccc4)c3C#N)C2)n(C)n1` (centres unmarked) [Example 321, (2,5-Dimethyl-2H-pyrazol-3-ylmethyl)-carbamic acid 3-cyano-2-(3-phenyl-butanoylamino)-4,5,6,7-tetrahydro-benzo[b] thiophen-6-ylmethyl ester], the figures for the IC50 in assay [1] and in assay [2] were at least 50.1 µM and at most 0.501 µM, respectively.
The like results for `COc1cccc(CCC(=O)Nc2sc3c(c2C#N)CCC(OC(=O)N2CCOCC2)C3)c1` (centres unmarked) [Example 231, Morpholine-4-carboxylic acid 3-cyano-2-[3-(3-methoxy-phenyl)-propanoylamino]-4,5,6,7-tetrahydro-benzo[b]thiophen-6-yl ester] were, in that order, at least 100 µM and at most 0.501 µM.
The like results for `CN(C)C(=O)OC[C@@H]1CCc2c(sc(NC(=O)/C=C/c3cccnc3)c2C#N)C1` [Example 74b, Dimethyl-carbamic acid (R)-3-cyano-2-((E)-3-pyridin-3-yl-allanoylamino)-4,5,6,7-tetrahydro-benzo[b]thiophen-6-ylmethyl ester] were, in that order, at least 100 µM and at most 0.501 µM.
The like results for `CC(CC(=O)Nc1sc2c(c1C#N)CCC(COC(=O)NCc1ccnn1C)C2)c1ccccc1` (centres unmarked) [Example 313, (2-Methyl-2H-pyrazol-3-ylmethyl)-carbamic acid 3-cyano-2-(3-phenyl-butanoylamino)-4,5,6,7-tetrahydro-benzo[b] thiophen-6-ylmethyl ester] were, in that order, at least 50.1 µM and at most 0.501 µM.
In the case of `Cc1nn(C)cc1CNC(=O)OC1CCc2c(sc(NC(=O)CC(C)c3ccccc3)c2C#N)C1` (centres unmarked) [Example 301, (1,3-Dimethyl-1H-pyrazol-4-ylmethyl)-carbamic acid 3-cyano-2-(3-phenyl-butanoylamino)-4,5,6,7-tetrahydro-benzo[b]thiophen-6-yl ester], the values for the IC50 in assay [1] and in assay [2] were at least 50.1 µM and at most 0.501 µM, respectively.
The like results for `N#Cc1c(NC(=O)/C=C/c2cccnc2)sc2c1CCC(COC(=O)N1CC[C@H](O)C1)C2` (stereo partly drawn) [Example 144, (S)-3-Hydroxy-pyrrolidine-1-carboxylic acid 3-cyano-2-((E)-3-pyridin-3-yl-allanoylamino)-4,5,6,7-tetrahydro-benzo[b]thiophen-6-ylmethyl ester] were, in that order, at least 100 µM and at most 0.501 µM.
With `COc1cccc(CCC(=O)Nc2sc3c(c2C#N)CCC(COC(=O)NCc2cc(C)no2)C3)c1` (centres unmarked) [Example 244, (3-Methyl-isoxazol-5-ylmethyl)-carbamic acid 3-cyano-2-[3-(3-methoxy-phenyl)-propanoylamino]-4,5,6,7-tetrahydro-benzo[b]thiophen-6-ylmethyl ester], the IC50 is at least 100 µM in assay [1] and at most 0.501 µM in assay [2].
For `N#Cc1c(NC(=O)/C=C/c2cccnc2)sc2c1CCC(OC(=O)NC1CCC1)C2` (centres unmarked) [Example 139, Cyclobutyl-carbamic acid 3-cyano-2-((E)-3-pyridin-3-yl-allanoylamino)-4,5,6,7-tetrahydro-benzo[b]thiophen-6-yl ester], the IC50 in assay [1] is at least 100 µM; in assay [2], at most 0.501 µM.
For `CCOc1ccccc1CCC(=O)Nc1sc2c(c1C#N)CCC(OC(=O)OCc1ccccc1)C2` (centres unmarked) [Example 154, Carbonic acid benzyl ester 3-cyano-2-[3-(2-ethoxy-phenyl)-propanoylamino]-4,5,6,7-tetrahydro-benzo[b]thiophen-6-yl ester], the IC50 was at least 100 µM in assay [1] and 0.501 to 2 µM in assay [2].
As to `CCN(CC)C(=O)OCC1CCc2c(sc(NC(=O)/C=C/c3cccnc3)c2C#N)C1` (centres unmarked) [Example 82, Diethyl-carbamic acid 3-cyano-2-((E)-3-pyridin-3-yl-allanoylamino)-4,5,6,7-tetrahydro-benzo[b]thiophen-6-ylmethyl ester], the IC50 is at least 100 µM in assay [1] and at most 0.501 µM in assay [2].
Taken in the same sequence, the figures for `COc1cccc(CCC(=O)Nc2sc3c(c2C#N)CCC(OC(=O)NCc2cccnc2)C3)c1` (centres unmarked) [Example 259, Pyridin-3-ylmethyl-carbamic acid 3-cyano-2-[3-(3-methoxy-phenyl)-propanoylamino]-4,5,6,7-tetrahydro-benzo[b]thiophen-6-yl ester] were at least 100 µM and at most 0.501 µM.
The like results for `N#Cc1c(NC(=O)/C=C/c2cccnc2)sc2c1CCC(OC(=O)NCC1CC1)C2` (centres unmarked) [Example 109, Cyclopropylmethyl-carbamic acid 3-cyano-2-((E)-3-pyridin-3-yl-allanoylamino)-4,5,6,7-tetrahydro-benzo[b]thiophen-6-yl ester] were, in that order, at least 100 µM and at most 0.501 µM.
The like results for `CC(CC(=O)Nc1sc2c(c1C#N)CCC(COC(=O)NCc1ccccn1)C2)c1ccccc1` (centres unmarked) [Example 304, Pyridin-2-ylmethyl-carbamic acid 3-cyano-2-(3-phenyl-butanoylamino)-4,5,6,7-tetrahydro-benzo[b] thiophen-6-ylmethyl ester] were, in that order, at least 50.1 µM and at most 0.501 µM.
On to `CCOc1ccccc1CCC(=O)Nc1sc2c(c1C#N)CCC(OC(=O)NCc1ccccn1)C2` (centres unmarked) [Example 174, Pyridin-2-ylmethyl-carbamic acid 3-cyano-2-[3-(2-ethoxy-phenyl)-propanoylamino]-4,5,6,7-tetrahydro-benzo[b]thiophen-6-yl ester], for which the IC50 in assay [1] is at least 100 µM; in assay [2], at most 0.501 µM.
Taken in the same sequence, the figures for `CC(CC(=O)Nc1sc2c(c1C#N)CCC(COC(=O)NCC1CCOCC1)C2)c1ccccc1` (centres unmarked) [Example 308, (Tetrahydro-pyran-4-ylmethyl)-carbamic acid 3-cyano-2-(3-phenyl-butanoylamino)-4,5,6,7-tetrahydro-benzo[b]thiophen-6-ylmethyl ester] were at least 50.1 µM and at most 0.501 µM.
Taken in the same sequence, the figures for `CC(CC(=O)Nc1sc2c(c1C#N)CCC(OC(=O)NCc1ccccn1)C2)c1ccccc1` (centres unmarked) [Example 287, Pyridin-2-ylmethyl-carbamic acid 3-cyano-2-(3-phenyl-butanoylamino)-4,5,6,7-tetrahydro-benzo[b] thiophen-6-yl ester] were at least 10 µM and 0.501 to 2 µM.
The like results for `Cc1oncc1CNC(=O)OC1CCc2c(sc(NC(=O)CC(C)c3ccccc3)c2C#N)C1` (centres unmarked) [Example 358, (5-Methyl-isoxazol-4-ylmethyl)-carbamic acid 3-cyano-2-(3-phenyl-butanoylamino)-4,5,6,7-tetrahydro-benzo[b]thiophen-6-yl ester] were, in that order, at least 100 µM and at most 0.501 µM.
`CCOc1ccccc1CCC(=O)Nc1sc2c(c1C#N)CCC(COC(=O)NCc1nc(C)cs1)C2` (centres unmarked) [Example 214, (4-Methyl-thiazol-2-ylmethyl)-carbamic acid 3-cyano-2-[3-(2-ethoxy-phenyl)-propanoylamino]-4,5,6,7-tetrahydro-benzo[b]thiophen-6-ylmethyl ester]: the IC50 in assay [1] is at least 100 µM; in assay [2] it was at most 0.501 µM.
The like results for `COc1cccc(C(C)CC(=O)Nc2sc3c(c2C#N)CCC(OC(=O)NCC2CCOCC2)C3)c1` (centres unmarked) [Example 270, (Tetrahydro-pyran-4-ylmethyl)-carbamic acid 3-cyano-2-[3-(3-methoxy-phenyl)-butanoyl-amino]-4,5,6,7-tetrahydro-benzo[b]thiophen-6-yl ester] were, in that order, at least 100 µM and 0.501 to 2 µM.
The like results for `N#Cc1c(NC(=O)/C=C/c2cccnc2)sc2c1CCC(COC(=O)N1CCCC(O)C1)C2` (centres unmarked) [Example 87, 3-Hydroxy-piperidine-1-carboxylic acid 3-cyano-2-((E)-3-pyridin-3-yl-allanoylamino)-4,5,6,7-tetrahydro-benzo[b]thiophen-6-ylmethyl ester] were, in that order, at least 100 µM and at most 0.501 µM.
The like results for `N#Cc1c(NC(=O)/C=C/c2cccnc2)sc2c1CC[C@H](COC(=O)N1CCC(O)CC1)C2` [Example 114a, 4-Hydroxy-piperidine-1 - carboxylic acid (S)-3-cyano-2-((E)-3-pyridin-3-yl-allanoylamino)-4,5,6,7-tetrahydro-benzo[b]thiophen-6-ylmethyl ester] were, in that order, at least 100 µM and at most 0.501 µM.
In the case of `COC(=O)OC1CCc2c(sc(NC(=O)CCc3cccnc3)c2C#N)C1` (centres unmarked) [Example 186, Carbonic acid 3-cyano-2-(3-pyridin-3-yl-propanoylamino)-4,5,6,7-tetrahydro-benzo[b]thiophen-6-yl ester methyl ester], the IC50 in assay [1] is at least 100 µM; in assay [2], 0.501 to 2 µM.
In the case of `COc1cccc(CCC(=O)Nc2sc3c(c2C#N)CCC(OC(=O)NCCn2ccnc2)C3)c1` (centres unmarked) [Example 263, (2-Imidazol-1-yl-ethyl)-carbamic acid 3-cyano-2-[3-(3-methoxy-phenyl)-propanoylamino]-4,5,6,7-tetrahydro-benzo[b]thiophen-6-yl ester], the IC50 in assay [1] was at least 50.1 µM; in assay [2], at most 0.501 µM.
